Patent publication US5032595A, “Method of stimulating steroidogenesis with alpidem” (FIDIA-Georgetown Institute for the Neurosciences, priority 1989, dated 1991)

Columns and labels:
[1] = test system: purified rat Leydig cells; assay: Testosterone production by purified rat Leydig cells, basal and hCG stimulated
[2] = biological target: T1, peripheral-type benzodiazepine receptor (PBR) in Y-1 cells (Mus musculus, UniProt P50637); assay: [3H]PK 11195 binding in Y-1 adrenocortical cells; conditions: 37° C., FIG. 2a
T1 construct: Y-1 cell cultures were scraped from the flasks; host or cells: Y-1 mouse adrenal tumor cells
T1 sequence (P50637 whole entry): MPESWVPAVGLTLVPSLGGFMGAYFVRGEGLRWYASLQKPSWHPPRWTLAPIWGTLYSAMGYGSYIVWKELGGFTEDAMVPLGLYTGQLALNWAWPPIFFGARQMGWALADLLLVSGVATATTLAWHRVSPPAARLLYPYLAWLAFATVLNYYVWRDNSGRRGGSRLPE
Method: (§1) Cells--The Y-1 adrenal mouse tumor cell line used in these studies was obtained from the American Type Culture Collection (ATCC #CCL 79). Stock cultures were grown in modified Waymouth's MB752/l medium containing 20 mM HEPES, 1.2 g/l NaHCO3, 15% horse serum and 2.5% fetal calf serum, pH 7.4. Before use the cells were washed three times at 30 min intervals, with serum-free media in order to eliminate serum components that may interfere with the assays and were incubated for the indicated time periods in the presence of the drugs under investigation. Bovine fasciculata-reticularis and adrenocortical cells from adult (300 g) Sprague-Dawley rats were prepared as previously described by Yanagibashi et al, (1989) Endocrinology 124; 2838-2391.
Radioligand binding assays--Y-1 cell cultures were scraped from the flasks ([…]) in 5 ml of Kreb's buffer, dispersed by repetitive pipetting, and centrifuged at 1,200 × g for 5 min. The cell pellets were resuspended in Kreb's buffer and larger cellular aggregates were allowed to settle for 5 min. The finely dispersed cell suspensions were taken for further experimentation.
Binding assays were performed in a total volume of 250-400 ul of Kreb's buffer containing [^3 H]PK 11195 (0.07-20 nM) with 5 ug of cellular protein. Incubations were conducted at 37° C. for 30 min and bound radioligand was measured by filtration through Whatman GF/C filters followed by four rapid 5 ml washes with 25 mM Tris-HCl (pH 7.4) containing 1 uM PK 11195. Filters were subjected to liquid scintillation counting. Nonspecific binding was measured in the presence (of 10 uM nonradioactive PK 11195.

rat adrenocortical cells = assay: Corticosterone secretion in dissociated rat adrenocortical cells; type: cell-based; conditions: rat adrenocortical cell suspensions, FIG. 5a
Method: as §1
Measurement of steroid production--These experiments were performed with the Y-1 cells plated in 12--22 mm wells and incubated for the times shown at a final volume of 1 ml of serum-free media at 37° C. […] Steroid production was determined by measuring 20-γ-hydroxyprogesterone, the main steroid product of these cells, using a radioimmunoassay with an antibody donated by Dr. G. Nieswender (Univ. of Colorado, Fort Collins), under the process described in Kowal J. (1970), Recent Progress in Hormone Research 26, 623-687 and Schimmer B.P. (1981) in Functionally Differentiated Cell Lines, ed. […]

CN1C(=O)CN=C(c2ccc(Cl)cc2)c2cc(Cl)ccc21 [Ro5-4864, 4'-chlorodiazepam]
Testosterone, No Additions ([1]; compound 10^-5 M, basal, 4 hours at 32° C., mean ± S.D. n = 3, control 1.30 ± 0.20): 2.40 ± 0.30 ng/10^5 cel s/4 hours
Testosterone, hCG (50 ng/ml) ([1]; compound 10^-5 M, hCG 50 ng/ml, 4 hours at 32° C., mean ± S.D. n = 3, control 15.13 ± 2.05): 14.10 ± 2.26 ng/10^5 cel s/4 hours
stimulation of testosterone production ([1]; purified rat Leydig cells, basal, 240 min): about 2 fold
rank order of compound displacement potency against [3H]PK 11195 binding [2]: alpidem>PK 11195>PK 14067>4'-chlorodiazepam>zolpidem>PK 14608, diazepam>flunitrazepam>clonazepam>flumazenil
stimulation of steroid production (corticosterone), in words (rat adrenocortical cells): much more potent at stimulating steroidogenesis in rat adrenocortical cells when compared with bovine preparations
